Measured values from ChEMBL document CHEMBL3124860, “Fragment-based identification of amides derived from trans-2-(pyridin-3-yl)cyclopropanecarboxylic acid as potent inhibitors of human nicotinamide phosphoribosyltransferase (NAMPT)” (J Med Chem, 2014).
In brackets after ≈: the same amount, converted by molar mass.

How the values were obtained:
[1] = Clearance in human liver microsomes at 1 uM up to 60 mins by LC-MS/MS analysis; format: ADME
physchem = settings: buffer
[2] = Clearance in CD-1 mouse hepatocytes at 1 uM up to 3 hrs by LC-MS/MS analysis; format: ADME, cell-based, Hepatocyte
[3] = Clearance in CD-1 mouse liver microsomes at 1 uM up to 60 mins by LC-MS/MS analysis; format: ADME, Microsome
in vitro = settings: dog, MDCK
[4] = Cmax in NCR nude mouse at 10 mg/kg, po bid after 24 hrs; format: ADME, organism-based; set-up: dose 10 mg/kg, route oral; settings: in vivo
[5] = AUC (0 to last) in NCR nude mouse at 10 mg/kg, po bid after 24 hrs; format: ADME, organism-based; set-up: time 0 - last, dose 10 mg/kg, route oral; settings: plasma
[6] = buffer, 24 h

CLhep predicted at 1 µM [1] [mL/min/kg] | solubility at 24 h (physchem) [µM] | Structure (SMILES) | also measured
15 | 15 (≈ 5.89 µg/mL) | O=C(NCc1ccc(S(=O)(=O)c2ccccc2)cc1)[C@@H]1C[C@H]1c1cccnc1 (racemic) | 
13 | 93 (≈ 35.9 µg/mL) | O=C(Nc1ccc(S(=O)(=O)C2CCOCC2)cc1)[C@@H]1C[C@H]1c1cccnc1 (racemic) | 
3 | 155 (≈ 68.3 µg/mL) | CC(C)(O)Cn1cc(S(=O)(=O)c2ccc(NC(=O)[C@@H]3C[C@H]3c3cccnc3)cc2)cn1 (racemic) | 
9 | 7 (≈ 2.85 µg/mL) | Nc1ccc([C@@H]2C[C@H]2C(=O)NCc2ccc(S(=O)(=O)c3ccccc3)cc2)cn1 (racemic) | 
19 | 13 (≈ 4.85 µg/mL) | O=C(NCCCCCCOc1ccc(Cl)cc1)[C@@H]1C[C@H]1c1cccnc1 (racemic) | 
5 | 99 (≈ 37.9 µg/mL) | Nc1ccc(CNC(=O)Nc2ccc(S(=O)(=O)c3ccccc3)cc2)cn1 | 
18 | 165 (≈ 59 µg/mL) | CC(C)(C)OC(=O)N1C[C@H]2CCN(C(=O)[C@@H]3C[C@H]3c3cccnc3)[C@H]2C1 (racemic) | 
15 |  | O=C(/C=C/c1cccnc1)NCCCCC1CCN(C(=O)c2ccccc2)CC1 [DAPORINAD] | 
6 | 1 (≈ 0.428 µg/mL) | O=S1(=O)N=C(NCc2ccc(S(=O)(=O)c3ccccc3)cc2)Nc2ccncc21 | Papp A→B at 10 µM (in vitro): 0.8 ×10⁻⁶ cm/s
16 | 1 (≈ 0.425 µg/mL) | Cc1nn(C(C)C)cc1S(=O)(=O)c1ccc(NC(=O)[C@@H]2C[C@H]2c2cccnc2)cc1 (racemic) | 
9 | 1 (≈ 0.457 µg/mL) | CS(=O)(=O)c1cccc(S(=O)(=O)c2ccc(NC(=O)[C@@H]3C[C@H]3c3cccnc3)cc2)c1 (racemic) | CLhep predicted at 1 µM [2]: 54 mL/min/kg; CLhep predicted at 1 µM [3]: 74 mL/min/kg; Papp A→B at 10 µM (in vitro): 2.7 ×10⁻⁶ cm/s

The next lines start with the molecule.

Structure (SMILES) | CLhep predicted at 1 µM [1] [mL/min/kg] | solubility at 24 h (physchem) [µM] | also measured
CCCn1cc(S(=O)(=O)c2ccc(NC(=O)[C@@H]3C[C@H]3c3cccnc3)cc2)cn1 (racemic) | 12 | 48 (≈ 19.7 µg/mL) | CLhep predicted at 1 µM [2]: 59 mL/min/kg; CLhep predicted at 1 µM [3]: 75 mL/min/kg; Papp A→B at 10 µM (in vitro): 11.5 ×10⁻⁶ cm/s
Cc1ccc(S(=O)(=O)c2ccc(NC(=O)[C@@H]3C[C@H]3c3cccnc3)cc2)cn1 (racemic) | 10 | 6 (≈ 2.36 µg/mL) | 
O=C(NCCCCC1CCN(C(=O)c2ccccc2)CC1)[C@@H]1C[C@H]1c1cccnc1 (racemic) | 19 | 223 (≈ 90.4 µg/mL) | 
N#CN=C(NCCCCCCOc1ccc(Cl)cc1)Nc1ccncc1 [CHS-828] | 15 | 2.2 (≈ 0.818 µg/mL) | 
O=S1(=O)NC(NCc2ccc(S(=O)(=O)N3CCC(N4CCCC4)CC3)cc2)=Nc2ccncc21 | 8 | 104 (≈ 52.5 µg/mL) | Papp A→B at 10 µM (in vitro): 0.1 ×10⁻⁶ cm/s
Nc1ccc([C@@H]2C[C@H]2C(=O)Nc2ccc(S(=O)(=O)c3ccccc3)cc2)cn1 (racemic) | 6 | 36 (≈ 14.2 µg/mL) | 
O=C(NCc1ccc(S(=O)(=O)c2ccccc2)cc1)[C@@H]1C[C@H]1c1ccncc1 (racemic) | 9 | 59 (≈ 23.2 µg/mL) | 
O=C(Nc1ccc(S(=O)(=O)N2CC3CCC(C2)O3)cc1)[C@@H]1C[C@H]1c1cccnc1 (mixture of isomers) | 16 |  | 
CCCn1cc(S(=O)(=O)c2ccc(NC(=O)[C@H]3C[C@@H]3c3cccnc3)cc2)cn1 | 13 | 16 (≈ 6.57 µg/mL) | CLhep predicted at 1 µM [2]: 75 mL/min/kg; Cmax [4]: 34.6 µM; AUC(0-t) at 24 h [5]: 126 µM·h; CLhep predicted at 1 µM [3]: 79 mL/min/kg; Papp A→B at 10 µM (in vitro): 7.1 ×10⁻⁶ cm/s
O=C(Nc1ccc(S(=O)(=O)c2cc(F)cc(F)c2)cc1)[C@@H]1C[C@H]1c1cccnc1 (racemic) | 12 | 6 (≈ 2.49 µg/mL) | 
CC(C)(C)OC(=O)N1CC2(CCN(C(=O)[C@H]3C[C@@H]3c3cccnc3)C2)C1 (relative stereo) | 10 | 133 (≈ 47.5 µg/mL) | 
CC(C)n1cc(S(=O)(=O)c2ccc(NC(=O)[C@H]3C[C@@H]3c3cccnc3)cc2)cn1 | 11 | 77 (≈ 31.6 µg/mL) | CLhep predicted at 1 µM [2]: 76 mL/min/kg; CLhep predicted at 1 µM [3]: 80 mL/min/kg; Papp A→B at 10 µM (in vitro): 9.7 ×10⁻⁶ cm/s
O=C(Nc1ccc(S(=O)(=O)c2cnn(CC(F)(F)F)c2)cc1)[C@@H]1C[C@H]1c1cccnc1 (racemic) | 8 | 23 (≈ 10.4 µg/mL) | 
O=C(Nc1ccc(S(=O)(=O)c2cnn(C3CCOCC3)c2)cc1)[C@@H]1C[C@H]1c1cccnc1 (racemic) | 15 |  | CLhep predicted at 1 µM [2]: 51 mL/min/kg; CLhep predicted at 1 µM [3]: 77 mL/min/kg
CC(C)n1cc(S(=O)(=O)c2ccc(NC(=O)[C@@H]3C[C@H]3c3cccnc3)cc2)cn1 (racemic) |  |  | CLhep predicted at 1 µM [2]: 60 mL/min/kg; CLhep predicted at 1 µM [3]: 75 mL/min/kg; solubility [6]: 66 µM (≈ 27.1 µg/mL); Papp A→B at 10 µM (in vitro): 10 ×10⁻⁶ cm/s
O=C(Nc1ccc(S(=O)(=O)c2cccc(OC(F)(F)F)c2)cc1)[C@@H]1C[C@H]1c1cccnc1 (racemic) | 10 | 1 (≈ 0.462 µg/mL) | CLhep predicted at 1 µM [2]: 49 mL/min/kg; CLhep predicted at 1 µM [3]: 69 mL/min/kg; Papp A→B at 10 µM (in vitro): 7.4 ×10⁻⁶ cm/s
CC(C)n1cc(S(=O)(=O)c2ccc(NC(=O)[C@@H]3C[C@H]3c3cccnc3)cc2)cn1 | 12 | 59 (≈ 24.2 µg/mL) | 
O=C(Nc1ccc(S(=O)(=O)N2CCOCC2)cc1)[C@@H]1C[C@H]1c1cccnc1 (racemic) | 13 | 88 (≈ 34.1 µg/mL) | 
Cc1c(S(=O)(=O)c2ccc(NC(=O)[C@@H]3C[C@H]3c3cccnc3)cc2)cnn1C(C)C (racemic) | 19 | 30 (≈ 12.7 µg/mL) | 
O=C(Nc1ccc(S(=O)(=O)c2ccccc2)cc1)[C@@H]1C[C@H]1c1cccnc1 (racemic) |  |  | CLhep predicted at 1 µM [2]: 63 mL/min/kg; CLhep predicted at 1 µM [3]: 76 mL/min/kg; solubility [6]: 20 µM (≈ 7.57 µg/mL); Papp A→B at 10 µM (in vitro): 24 ×10⁻⁶ cm/s
O=C(Nc1ccc(S(=O)(=O)c2ccccc2)cc1)[C@@H]1C[C@H]1c1ccncc1 (racemic) | 9 | 1 (≈ 0.378 µg/mL) | 
CC(C)(C)OC(=O)N1C[C@@H]2CCN(C(=O)[C@@H]3C[C@H]3c3cccnc3)[C@@H]2C1 (racemic) | 18 | 165 (≈ 59 µg/mL) | 
O=C(Nc1ccc(S(=O)(=O)c2ccccc2)cc1)[C@@H]1C[C@H]1c1cccnc1 (single isomer, unassigned; enantiomer 2) | 7 | 15 (≈ 5.68 µg/mL) | 
CCn1cc(S(=O)(=O)c2ccc(NC(=O)[C@@H]3C[C@H]3c3cccnc3)cc2)cn1 (racemic) | 8 | 72 (≈ 28.5 µg/mL) | 
O=C(Nc1ccc(S(=O)(=O)c2cccc(C(F)(F)F)c2)cc1)[C@@H]1C[C@H]1c1cccnc1 (racemic) | 10 | 1 (≈ 0.446 µg/mL) | 
O=C(Nc1ccc(S(=O)(=O)c2ccccc2)cc1)[C@H]1C[C@@H]1c1cccnc1 (single isomer, unassigned; enantiomer 1) | 11 | 15 (≈ 5.68 µg/mL) | CLhep predicted at 1 µM [2]: 78 mL/min/kg; CLhep predicted at 1 µM [3]: 79 mL/min/kg; Papp A→B at 10 µM (in vitro): 21.2 ×10⁻⁶ cm/s
